Where two headings read alike, the source gives them in different places.
What was measured:
PAN02 subcutaneous tumor = type: in vivo, mouse
Source text: (§1) After the intravenous administration of free Cy5.5, ^Cy5.5SAMIs, and ^Cy5.5PAC-SABIs, the mice were euthanized at the 48-h mark, and the heart, liver, spleen, lung, kidney, and tumor were harvested for ex vivo imaging (Fig. 5e, f). […] Despite the observed retention in metabolic organs such as the liver and kidney, distinct variations in tissue distribution were noted between ^Cy5.5SAMIs and ^Cy5.5PAC-SABIs (Fig. 5e, f and Supplementary Fig. 30). Specifically, ^Cy5.5PAC-SABIs achieved a marked selective enrichment in both BC and PC tumors. […] The discernible dissimilarity between these two molecules could be attributed to the presence of targeted ligands and EISA, which augmented the precise recognition of ^Cy5.5PAC-SABIs toward cancer cells and facilitated their proficient molecular assembly. To further observe the distribution of ^Cy5.5PAC-SABIs in the BC and PC tissues, we analyzed the Cy5.5 fluorescence of tumor sections. […] Moreover, we employed SEM imaging to visualize the in situ self-assembly morphology of PAC-SABIs.
(§2) To obtain breast and pancreatic subcutaneous xenografts, 1 × 10^6 4T1 or PAN02 cells were implanted into the right hind limb of BALB/c and C57BL/6 mice, respectively. When the tumor size reached ≈ 50 mm^3, mice were randomly sorted into free Cy5.5, ^Cy5.5SAMIs, and ^Cy5.5PAC-SABIs groups. The 4T1 and PAN02 tumor-bearing mice were correspondingly intravenously injected with free Cy5.5, ^Cy5.5SAMIs, and ^Cy5.5PAC-SABIs (the dose of Cy5.5 was 1 mg/kg) for in vivo fluorescence imaging with IVIS system (Perkin Elmer, USA). Then, the mice were sacrificed to collect the major organs (heart, liver, spleen, lung, and kidney) and tumors for ex vivo fluorescence imaging. Finally, the 4T1 and PAN02 tumors were embedded in Tissue-Tek OCT compound (Sakura, Japan), and cryosections of 8 µm thickness were prepared. The Cy5.5 signal was detected using a fluorescence microscope (Nikon, Japan).
(§3) Supplementary Fig. 30 Quantification analysis of the ex vivo NIR fluorescence intensity in tumors and major organs. a Quantitative calculation of average fluorescence signal in 4T1 tumor and major organ area. The error bars represent the mean ± SD (n = 3 mice; ****p < 0.0001; the p value was analyzed by a two-tailed unpaired Student’s t-test).b Quantitative calculation of average fluorescence signal in PAN02 tumor and major organ area. The error bars represent the mean ± SD (n = 3 mice; ****p < 0.0001; the p value was analyzed by a two-tailed unpaired Student’s t-test).Source data are provided as a Source Data file.
(§4) (1 picture or pasted object on this page, not shown here)

4T1 subcutaneous tumor = test: Ex vivo NIR fluorescence of tumor and major organs, 48 h; type: in vivo, mouse
Source text: as §1, §2, §3, §4

cyanine 5.5 [free Cy5.5] was tested, and the Average radiant efficiency (PAN02 subcutaneous tumor; Heart, PAN02 model, replicate 1) was 0.069 × 10^3 P/Sec, the Average radiant efficiency (PAN02 subcutaneous tumor; Heart, PAN02 model, replicate 2) was 0.108 × 10^3 P/Sec and the Average radiant efficiency (PAN02 subcutaneous tumor; Heart, PAN02 model, replicate 3) was 0.122 × 10^3 P/Sec. The Average radiant efficiency (PAN02 subcutaneous tumor; Kidney, PAN02 model, replicate 1) was 0.064 × 10^3 P/Sec, the Average radiant efficiency (PAN02 subcutaneous tumor; Kidney, PAN02 model, replicate 2) was 0.137 × 10^3 P/Sec and the Average radiant efficiency (PAN02 subcutaneous tumor; Kidney, PAN02 model, replicate 3) was 0.152 × 10^3 P/Sec. The Average radiant efficiency (PAN02 subcutaneous tumor; Liver, PAN02 model, replicate 1) was 0.094 × 10^3 P/Sec, the Average radiant efficiency (PAN02 subcutaneous tumor; Liver, PAN02 model, replicate 2) was 0.126 × 10^3 P/Sec and the Average radiant efficiency (PAN02 subcutaneous tumor; Liver, PAN02 model, replicate 3) was 0.145 × 10^3 P/Sec. For the same substance, the Average radiant efficiency (PAN02 subcutaneous tumor; Lung, PAN02 model, replicate 1) was 0.056 × 10^3 P/Sec, the Average radiant efficiency (PAN02 subcutaneous tumor; Lung, PAN02 model, replicate 2) was 0.103 × 10^3 P/Sec and the Average radiant efficiency (PAN02 subcutaneous tumor; Lung, PAN02 model, replicate 3) was 0.159 × 10^3 P/Sec. For the same substance, the Average radiant efficiency (PAN02 subcutaneous tumor; PAN02 tumor, replicate 1) was 0.125 × 10^3 P/Sec, the Average radiant efficiency (PAN02 subcutaneous tumor; PAN02 tumor, replicate 2) was 0.056 × 10^3 P/Sec and the Average radiant efficiency (PAN02 subcutaneous tumor; PAN02 tumor, replicate 3) was 0.141 × 10^3 P/Sec. The Average radiant efficiency (PAN02 subcutaneous tumor; Spleen, PAN02 model, replicate 1) was 0.046 × 10^3 P/Sec, the Average radiant efficiency (PAN02 subcutaneous tumor; Spleen, PAN02 model, replicate 2) was 0.093 × 10^3 P/Sec and the Average radiant efficiency (PAN02 subcutaneous tumor; Spleen, PAN02 model, replicate 3) was 0.157 × 10^3 P/Sec. For the same substance, the “ex vivo NIR fluorescence accumulation” value (4T1 subcutaneous tumor; 4T1 and PAN02 tumor-bearing mice, 48 h after i.v. injection, tumors and major organs) was “negligible accumulation in the tumors and major organs”, the Average radiant efficiency (4T1 subcutaneous tumor; 4T1 tumor, replicate 1) was 0.156 × 10^3 P/Sec and the Average radiant efficiency (4T1 subcutaneous tumor; 4T1 tumor, replicate 2) was 0.054 × 10^3 P/Sec. The Average radiant efficiency (4T1 subcutaneous tumor; 4T1 tumor, replicate 3) was 0.174 × 10^3 P/Sec, the Average radiant efficiency (4T1 subcutaneous tumor; Heart, 4T1 model, replicate 1) was 0.085 × 10^3 P/Sec and the Average radiant efficiency (4T1 subcutaneous tumor; Heart, 4T1 model, replicate 2) was 0.174 × 10^3 P/Sec. For the same substance, the Average radiant efficiency (4T1 subcutaneous tumor; Heart, 4T1 model, replicate 3) was 0.168 × 10^3 P/Sec, the Average radiant efficiency (4T1 subcutaneous tumor; Kidney, 4T1 model, replicate 1) was 0.115 × 10^3 P/Sec and the Average radiant efficiency (4T1 subcutaneous tumor; Kidney, 4T1 model, replicate 2) was 0.12 × 10^3 P/Sec. For the same substance, the Average radiant efficiency (4T1 subcutaneous tumor; Kidney, 4T1 model, replicate 3) was 0.073 × 10^3 P/Sec, the Average radiant efficiency (4T1 subcutaneous tumor; Liver, 4T1 model, replicate 1) was 0.118 × 10^3 P/Sec and the Average radiant efficiency (4T1 subcutaneous tumor; Liver, 4T1 model, replicate 2) was 0.061 × 10^3 P/Sec. For the same substance, the Average radiant efficiency (4T1 subcutaneous tumor; Liver, 4T1 model, replicate 3) was 0.22 × 10^3 P/Sec, the Average radiant efficiency (4T1 subcutaneous tumor; Lung, 4T1 model, replicate 1) was 0.137 × 10^3 P/Sec and the Average radiant efficiency (4T1 subcutaneous tumor; Lung, 4T1 model, replicate 2) was 0.09 × 10^3 P/Sec. For the same substance, the Average radiant efficiency (4T1 subcutaneous tumor; Lung, 4T1 model, replicate 3) was 0.095 × 10^3 P/Sec, the Average radiant efficiency (4T1 subcutaneous tumor; Spleen, 4T1 model, replicate 1) was 0.157 × 10^3 P/Sec and the Average radiant efficiency (4T1 subcutaneous tumor; Spleen, 4T1 model, replicate 2) was 0.112 × 10^3 P/Sec. For the same substance, the Average radiant efficiency (4T1 subcutaneous tumor; Spleen, 4T1 model, replicate 3) was 0.069 × 10^3 P/Sec.

Source: PMC11227529, “An in-situ peptide-antibody self-assembly to block CD47 and CD24 signaling enhances macrophage-mediated phagocytosis and anti-tumor immune responses” (Nature Communications, 2024)
